Measured values as given in article PMC10604720, “Unraveling the Mechanism of Epichaperome Modulation by Zelavespib: Biochemical Insights on Target Occupancy and Extended Residence Time at the Site of Action” (Biomedicines, 2023).

Test: Biodistribution / PET pharmacokinetics of [124I]-zelavespib in MDA-MB-468 tumor-bearing mice (data of ref 32, refitted to exponential decay)
Assay type: in vivo, mouse
Procedure: Iodine-124 is a ‘non-residualizing’ isotope (i.e., free iodine-124 washes out from cells), and therefore, data derived from positron emission tomography imaging of MDA-MB-468-bearing mice that were administered a tracer amount of [^124I]-PU-AD can be used to determine real-time zelavespib concentrations delivered to tumors. Because positron emission tomography provides information on radioactivity and not molar concentrations, radioactivity data from Pillarsetty et al. were transformed into tumor concentrations to calculate the time-dependent zelavespib concentrations in tumors for an administered dose of 50 mg/kg. The drug concentration (in μM) in the tumor water space, [Drugtumor], at the time t post-administration is therefore: [Drugtumor]t=Drugdose·[Atumor]t/100%·1/W·1×10^6/MW µM where Drugdose is the administered drug dose (in mg), [Atumor]t is the activity concentration (in % injected dose per milliliter, %ID/mL) of the surrogate radiotracer, W is the water space of the tissue (in mL/g), MW is the molecular weight of the drug (i.e., zelavespib), and the factor 1 × 10^6 converts the concentration to μM. For the drug zelavespib and the surrogate radiotracer […] co-injected in a ratio of ~1 to 10,000, the drug itself is essentially the only significant form of the drug–surrogate combination in the tumor. Thus, for a co-administered dose of zelavespib (zelavespibdose in mg) and a tracer amount of [^124I]-PU-AD, the drug concentration in the tumor water space (using an average water space, W = 0.8 mL/g, and the molecular weight MW = 512) is: [Zelavespibtumor]t=Zelavespibdose · [Atumor]t/100%·2.44×10^3 µM
To study the zelavespib–epichaperome interaction in vivo, we selected, for simplicity, an epichaperome-positive tumor model (e.g., subcutaneously xenografted MDA-MB-468 tumors in mice). Using whole-body PET imaging after the injection of ^124I-labeled zelavespib, Pillarsetty et al. reported drug presence in MDA-MB-468 tumors up to 120 h post-single dose administration (~T1/2 = 60 h). Conversely, zelavespib was no longer observed in non-disease, non-metabolizing tissues after ~8 h, clearing rapidly from plasma, paralleled by a similar rapid clearance from normal tissues (i.e., chaperone-positive but epichaperome-negative). In these tumors, a clear relationship between tumor retention, pharmacodynamic effects, and anti-tumor activity was observed, supporting the notion that zelavespib was in residence with its target over the time it resided in these tumors.
These values are very much in agreement with those reported for zelavespib in human patients. […] Contrasting plasma and normal tissues and organs, the distribution of zelavespib in tumors was best fitted using a bi-exponential model. […] The first phase thus reflects the clearance of systemic agent, while the second is attributable to specific tumor retention.
Figure 1 Biodistribution of zelavespib in MDA-MB-468 tumor-bearing mice. (a) Biodistribution of [^124I]-Zelavespib in MDA-MB-468 tumors, organs, tissues, and plasma as per ref. [32]. Data are presented as means ± s.d., five mice per time point. Curves for blood, lung, heart, muscle, bone, and brain were fitted using a one-phase decay equation, and kinetics of zelavespib clearance were determined. Tumor curve was fitted to a two-phase exponential decay. k, kfast, and kslow are the rate constants. Half-life (T1/2) is computed as ln(2)/k. […] (b) Illustrative schematic showing the distinct binding kinetics of zelavespib to epichaperomes (slow off-rate) and to chaperone assemblies (fast off-rate). The tumor pharmacokinetics profile recorded in the Phase 2 interval may represent a direct reflection of the in vivo kinetics of target–drug unbinding. koff, kinetic rate constant for dissociation of an epichaperome-zelavespib assembly. Rt, retention time. […]

[1] = MDA-MB-468 tumor-bearing mice, one-phase exponential decay fit of data of ref 32
[2] = MDA-MB-468 tumor, bi-exponential fit, Phase 1: 0 to 8 h, data of ref 32
[3] = MDA-MB-468 tumor, bi-exponential fit, slow terminal clearance phase, data of ref 32

SMILES: CC(C)NCCCn1c(Sc2cc3c(cc2I)OCO3)nc2c(N)ncnc21 [zelavespib]
- half-life (T1/2), bone [1]: 2.84 h
- half-life (T1/2), brain [1]: 2.65 h
- half-life (T1/2), heart [1]: 3.10 h
- half-life (T1/2), lung [1]: 3.37 h
- half-life (T1/2), muscle [1]: 5.03 h
- half-life (T1/2), plasma/blood [1]: 4.38 h
- tumor Phase 1 T1/2 [2]: 2.87 h
- tumor Phase 1 rate constant k (kfast) [2]: 0.241 h⁻¹
- tumor Phase 2 T1/2 [3]: 46.8 h
- tumor Phase 2 rate constant k (kslow) [3]: 0.015 h⁻¹
